Source: US20120058057A1, “Anti-dandruff Agents” (MERCK PATENT GMBH, priority 2009, published 2012)

Assays:
[1] = test system: Staphylococcus epidermidis; experiment: Challenge test (Ph.Eur. 5.1.3), germ count over time, Staphylococcus epidermidis; format: cell-based; details: 1.0% in water
Malassezia furfur = experiment: Challenge test (Ph.Eur. 5.1.3), germ count over time, Malassezia furfur; format: cell-based; details: for total number of microorganisms (linear scale) / total number of microorganisms (log-scale): 1.0% in water
Experimental: The challenge testing procedure consists in challenging a non-contaminated antimicrobial product according to the invention with a prescribed inoculum of suitable microorganisms and storing the inoculated product at a prescribed temperature, e.g. room temperature. The number of organisms surviving in the test products is determined at specified intervals of time.
According to the description given in the European pharmacopea (Ph.Eur.5 Ausgabe, Grundwerk 2005, §5.1.3), the challenge tests are done following the procedure given thereafter.
Production of the Inoculum
A fresh stock culture of the specific micro-organsisms is inoculated on the surface of Agar medium B for bacteria and on the surface of Agar medium C for fungi. The bacteria culture will be incubated until sufficient sporulation (18-24h at 30-35° C.) In order to harvest the bacteria, the surface of the Agar media is washed out with a sterile solution containing sodium chloride (9 g/l) and poured into an adequate vessel. The concentration of germs in the suspension will be adjusted with the same solution to a concentration closed to 10^8 micro-organism/ml. Immediately after that action, a sample of this suspension is taken and the germ concentration in CFU/ml will be measured thanks to the method of membran filtration or counting on Agar plate. This value serves determining the value of the inoculum. The suspension must be used immediately.
Method of Determination of Germ Count
In order to determine the number of micro-organisms in the inoculated preparation (containing also the antimicrobial product according to invention), the same Agar medium as for the preparation of the inoculum will be used.
The aqueous suspension/solution containing 1% of the used ionic liquids (=verum) is inoculated with a suspension of the tests micro-organisms (Malassezia furfur) in such a way that a concentration from 10^5 to 10^6 microorganism/ml of the preparation is reached. The inoculated volume should not be above 1% v/v of the overall test solution. The suspension will be mixed in order to get a good homogenisation.
Water alone (=placebo) is treated in the same way. Antifungicidial activity of the verum will be detected once the survival rate of a microorganism for the verum is significantely lower than for the placebo.
The inoculated preparation is stored away from the daylight at 20-25° C. In order to begin the test, 1 g or 1 ml samples from the tests preparation (containing the inoculated micro-organsisms and the antimicrobial product according to the invention) will be taken at different intervals of time (in our case , 0.2 min, 5 min, 30 min, 1 h, 3 h, 6 h, 24 h) and the number of microorganisms will be measured using the Agar plate or the membrane filtration method. It is important to make sure that any remaining antimicrobial activity to be eliminated by dilution, filtration or specific inactivation.

[2] = Malassezia furfur, incubation 0 h
[3] = Malassezia furfur, incubation 1 h
[4] = Malassezia furfur, incubation 3 h
[5] = Malassezia furfur, incubation 6 h
[6] = Malassezia furfur, incubation 24 h

SMILES: CC[N+](C)(C)CCOC [compound 1136, N-ethyl-N,N-dimethyl-2-methoxyethylammonium propionate]
- total number of microorganisms (linear scale) ([1]; incubation 0 h): 210000
- total number of microorganisms (log-scale) ([1]; incubation 0 h): 5.3
- total number of microorganisms (linear scale) ([1]; incubation 1 h): 160000
- total number of microorganisms (log-scale) ([1]; incubation 1 h): 5.2
- total number of microorganisms (linear scale) ([1]; incubation 3 h): 180000
- total number of microorganisms (log-scale) ([1]; incubation 3 h): 5.3
- total number of microorganisms (linear scale) ([1]; incubation 6 h): 170000
- total number of microorganisms (log-scale) ([1]; incubation 6 h): 5.2
- total number of microorganisms (linear scale) ([1]; incubation 24 h): 22000
- total number of microorganisms (log-scale) ([1]; incubation 24 h): 4.3
- antifungicidial / microbicidal activity against Malassezia furfur (in words) (Malassezia furfur; Malassezia furfur): unique antifungicidial activity
- total number of microorganisms (linear scale) (Malassezia furfur; [2]): 45000
- total number of microorganisms (log-scale) (Malassezia furfur; [2]): 4.7
- total number of microorganisms (linear scale) (Malassezia furfur; [3]): 41000
- total number of microorganisms (log-scale) (Malassezia furfur; [3]): 4.6
- total number of microorganisms (linear scale) (Malassezia furfur; [4]): 36000
- total number of microorganisms (log-scale) (Malassezia furfur; [4]): 4.6
- total number of microorganisms (linear scale) (Malassezia furfur; [5]): 33000
- total number of microorganisms (log-scale) (Malassezia furfur; [5]): 4.5
- total number of microorganisms (linear scale) (Malassezia furfur; [6]): 100
- total number of microorganisms (log-scale) (Malassezia furfur; [6]): 2.0
- selectivity of growth inhibition: Malassezia furfur versus desired skin microorganisms (e.g. Staphylococcus epidermidis) (Malassezia furfur; in words): selectively inhibit the growth of the undesired microorganism Malassezia furfur
